Where “and” joins values, the source holds several entries; their conditions need not be identical. Equal values may be shown once. Read-outs that look alike come from different tables or passages of the source.
Assays:
[1] = tested on: TNFα secretion, human white blood cells; conditions: cyclosporine 0 μM
Protocol: Drugs were added to the indicated concentration. […] The plate was then washed again with 0.1% Tween 20/PBS. An HRP-luminescent substrate was added to each well, and the light intensity of each well was measured using a plate luminometer.
(§1) The percent inhibition (% I) for each well was calculated using the following formula:
(§2) The average untreated well value (avg. untreated wells) is the arithmetic mean of 40 wells from the same assay plate treated with vehicle alone.

[2] = tested on: TNFα secretion, human white blood cells; test: TNFα secretion, lipopolysaccharide stimulation, human white blood cells (ELISA)
Protocol: (§3) Various concentrations of each test compound were added at the time of stimulation. […] After the plate was washed with 0.1% Tween 20/PBS, an HRP-luminescent substrate was added to each well and light intensity measured using a LJL Analyst plate luminometer.
as §1, §2

[3] = tested on: IL-2 secretion, human white blood cells; test: IL-2 secretion by PMA/ionomycin-stimulated human white blood cells (ELISA)
Protocol: as §3, §1, §2

[4] = cited from earlier work
[5] = read-out: % Inhibition of TNFα secretion, cyclosporine A 0 μM, chlorpromazine […]
[6] = read-out: % Inhibition of TNFα secretion, cyclosporine A 0.00 μM, ethopropazine […]
[7] = read-out: % Inhibition of IL-2 secretion, cyclosporine A 0.00 μM, ethopropazine […]
[8] = read-out: % Inhibition of IL-2 secretion

CCOC(=O)N1CCC(=C2c3ccc(Cl)cc3CCc3cccnc32)CC1 [Loratadine]
Reduction of TNFα secretion ([1]; loratadine 0.2 μM): 0 | Reduction of TNFα secretion ([1]; loratadine 13 μM): 30.1 | Reduction of TNFα secretion ([1]; loratadine 26 μM): 40.7

CN(C)CCCN1c2ccccc2Sc2ccc(Cl)cc21 [Chlorpromazine]
inhibition at 17 µM [2, 5]: 46.2% | inhibition at 35 µM [2, 5]: 45.5% | inhibition at 0.6 µM ([3]; read-out: % Inhibition of IL-2 secretion, cyclosporine A 0 μM, chlorpromazine 0.6 μM): -13.3% | inhibition at 5 µM ([3]; read-out: % Inhibition of IL-2 secretion, cyclosporine A 0 μM, chlorpromazine 5.0 μM): -13.7% | inhibition at 20 µM ([3]; read-out: % Inhibition of IL-2 secretion, cyclosporine A 0 μM, chlorpromazine 20.0 μM): 24.7% | inhibition at 40 µM ([3]; read-out: % Inhibition of IL-2 secretion, cyclosporine A 0 μM, chlorpromazine 40.0 μM): 80.7% | inhibition at 80 µM ([3]; read-out: % Inhibition of IL-2 secretion, cyclosporine A 0 μM, chlorpromazine 80.0 μM): 94.7%

CCN(CC)C(C)CN1c2ccccc2Sc2ccccc21 (centres unmarked) [Ethopropazine]
inhibition at 17 µM [2, 6]: 24.3% | inhibition at 35 µM [2, 6]: 69.6% | inhibition at 17 µM [3, 7]: 21% | inhibition at 35 µM [3, 7]: 52.3%

C=CC[C@@H]1/C=C(\C)C[C@H](C)C[C@H](OC)[C@H]2O[C@@](O)(C(=O)C(=O)N3CCCC[C@H]3C(=O)O[C@H](/C(C)=C/[C@@H]3CC[C@@H](O)[C@H](OC)C3)[C@H](C)[C@@H](O)CC1=O)[C@H](C)C[C@@H]2OC [Tacrolimus]
inhibition at 0.0004 µM ([3]; PBMC, read-out: % Inhibition IL-2 PBMC PI, tacrolimus 0.0004 μM, fluvoxamine μM: 0,0.16,0.31,0.62,1.2,2.5,5,10,20): 0.73% | inhibition at 0.0008 µM ([3]; PBMC, read-out: % Inhibition IL-2 PBMC PI, tacrolimus 0.0008 μM, fluvoxamine μM: 0,0.16,0.31,0.62,1.2,2.5,5,10,20): -4.4% | inhibition at 0.05 µM ([3]; PBMC, read-out: % Inhibition IL-2 PBMC PI, tacrolimus 0.05 μM, fluvoxamine μM: 0,0.16,0.31,0.62,1.2,2.5,5,10,20): 87% | inhibition at 0.05 µM ([3]; read-out: maximal inhibition of IL-2 production, tacrolimus 0.05 μM alone): 87%

CN(C)C(=O)C(CCN1CCC(O)(c2ccc(Cl)cc2)CC1)(c1ccccc1)c1ccccc1 [Loperamide]
inhibition at 35 µM ([2]; read-out: % Inhibition of TNFα secretion): 87.3% | inhibition at 17 µM [3, 8]: 4.2% | inhibition at 35 µM [3, 8]: 42.4% | inhibition at […] [3, 8]: -14.9% and -15.5% and -10.5% and -15.4% (2×) and -13.5%

CO[C@H]1C[C@@H]2CC[C@@H](C)[C@@](O)(O2)C(=O)C(=O)N2CCCC[C@H]2C(=O)O[C@H]([C@H](C)C[C@@H]2CC[C@@H](O)[C@H](OC)C2)CC(=O)[C@H](C)/C=C(\C)[C@@H](O)[C@@H](OC)C(=O)[C@H](C)C[C@H](C)/C=C/C=C/C=C/1C [Rapamycin]
absorption after oral administration [4]: absorbed rapidly and completely
